In patent US10280209B2 (YISSUM RESEARCH DEVELOPMENT COMPANY OF THE HEBREW …, priority 2013, dated 2019):
“And” between values parts separate entries of the source, which are not always exact repeats. Equal entries are not always repeated. Square brackets hold non-standard residues; d marks the D form. Ends that are not written are not given here.

Columns and labels:
signaling through CD3 = experiment: αCD3-induced cytokine expression in human PBMC (ELISA); format: cell-based; settings: αCD3 alone, 10 μg/ml peptide
Method: (§1) Peripheral blood mononuclear cells (PBMC) from healthy human donors were separated on Ficoll Paque (Amersham), washed twice with 50 ml of RPMI 1640 medium, re-suspended at a density of 4×10^6 cells/ml and cultured in this medium supplemented with 2% fetal calf serum, 2 mM glutamine, 10 mM Minimum Essential Medium (MEM) nonspecific amino acids, […], 10 mM Hepes pH 7.2, 5×10^−5 M 2-mercaptoethanol, 100 u/ml penicillin, 100 μg/ml streptomycin and 5 μg/ml nystatin. Mouse anti-human monoclonal antibodies αCD3 (clone UCHT1; 100 ng/ml) and αCD28 (clone 37407; 2.5 μg/ml) (both from R&D Systems) were used as inducers. Cytokines in culture medium were determined with Quantikine ELISA kits (R&D Systems) according to the manufacturer's instructions.

CD28 = target: T1, CD28 (Homo sapiens, UniProt P10747); experiment: αCD3/αCD28-induced cytokine expression in human PBMC (ELISA); format: cell-based; settings: αCD3/αCD28, 10 μg/ml peptide
T1 construct: endogenous in cells; host or cells: human PBMC
Method: as §1

human PBMC = experiment: Cytokine induction by peptides alone in human PBMC (ELISA); format: cell-based; settings: 10 μg/ml peptide, no inducer
Method: as §1

human IgG = experiment: Surface plasmon resonance, human IgG control on immobilized peptide; format: binding; settings: SPR, studied in parallel
Method: Peptides were diluted to 10-200 μg/ml in 10 mM Sodium (Na) acetate pH 4.0 and immobilized on a CM5 sensor chip (BIAcore) using an amine-thiol coupling kit (BIAcore), respectively; the immobilized amounts were 500-1,000 resonance units. Analytes were injected at 20 μl/min in 25 mM HEPES pH 7.4, 150 mM NaCl, 3.4 mM EDTA, and 0.005% surfactant P20 under conditions showing no mass transport limitation. Regeneration was with 50 mM phosphoric acid. Kinetic analyses were performed at 25° C. in a BIAcore 3000 instrument, deducting the signal from the control flow cell from the binding signal. Analyte curves were run in duplicate; representative results are shown. Human IgG (Jackson Laboratories) served as control. Fusion of the IgG1-Fc domain to the 152-amino-acid extracellular domain of CD28 was performed as described below.

adjuvant arthritis = experiment: Adjuvant arthritis model; settings: rat, in vivo
[1] = system: collagen-induced arthritis; experiment: Collagen-induced arthritis model; format: in vivo, mouse; settings: mice
[2] = system: experimental autoimmune encephalitis; experiment: Experimental autoimmune encephalitis (EAE) model; format: in vivo, mouse
[3] = target: T2, staphylococcal enterotoxin B (SEB) (Staphylococcus aureus, UniProt P01552); settings: previously shown (3); cited from earlier work
[4] = target: T2, staphylococcal enterotoxin B (SEB); settings: previously shown (3); cited from earlier work; remark: listed apart in the source
[5] = FIG. 11A, daily from day 1, solumedrol 20 mg/kg, p2TB 50 μg, pe12-pal 100 μg
[6] = independent experiment FIG. 11B-D, daily, solumedrol 20 mg/kg, p2TB 50 μg, p2TB-pal 50 μg, pe12-pal 100 μg

Compound | αCD3-mediated induction of IFN-γ (signaling through CD3) | αCD3-mediated induction of IL2 (signaling through CD3) | αCD3-mediated induction of TNF-α (signaling through CD3) | signaling through CD28 (IFN-γ, IL2, TNF-α secretion) (CD28) | Th1 cytokine response induced by peptide alone (human PBMC) | affinity for IgG (human IgG) | reduction of cumulative clinical score [2, 5] [%] | reduction of cumulative clinical score [2, 6] [%] | other results
(D-A)SHFTHNRHGHST(D-A) ([dA]SHFTHNRHGHST[dA]) [pe12] | did not inhibit | did not inhibit | did not inhibit | inhibit signaling through CD28 | do not induce a significant Th1 cytokine response | none of the peptides showed affinity for IgG | – | – | disease symptoms after termination of therapy on day 15 (adjuvant arthritis): leveled off and even showed a progressive further decline; cumulative reduction of disease symptoms (adjuvant arthritis; iv): 41%; disease symptoms during treatment, up to day 15 (adjuvant arthritis; iv): did not exhibit inhibition of symptoms
(palmitoyl-lysine)PAVVLASS(D-A) (PAVVLASS[dA]; not fully specified (N-terminus)) [p2TB-pal] | – | – | – | – | – | – | – | – | reduction of cumulative disease symptoms ([1]; 100 μg once every 3 days starting on day 25): 34%; reduction of cumulative clinical score ([2]; mouse, in vivo): 41% and 31% and 38%
C[C@H]1C[C@@H]2[C@H]([C@@H](O)C[C@@]3(C)[C@H]2CC[C@]3(O)C(=O)COC(=O)CCC(=O)O)[C@@]2(C)C=CC(=O)C=C12 [solumedrol, reference compound] | – | – | – | – | – | – | 50 | 50 | –
(palmitoyl-lysine)SHFTHNRHGHST(D-A) (SHFTHNRHGHST[dA]; not fully specified (N-terminus)) [pe12-pal] | – | – | – | – | – | – | 63 | 42 | amelioration of disease symptoms ([1]; 150 μg once every 3 days from disease onset): 31%; amelioration of disease symptoms ([1]; 200 μg once every 5 days from disease onset): 27%; reduction of cumulative clinical score ([2]; independent experiment FIG. 11B-D, once every 3 days, p2TB 100 μg, p2TB-pal 100 μg, pe12-pal 150 μg): 48%
(D-A)ASMDYPVL(D-A) ([dA]ASMDYPVL[dA]) | – | – | – | – | – | – | – | – | ability to bind directly to SEB after scrambling of p2TA sequence [3]: strongly impair; ability to protect mice from lethal SEB challenge after scrambling of p2TA sequence [4]: strongly impair
(D-A)PAVVLASS(D-A) ([dA]PAVVLASS[dA]) [p2TB, CTLA-4 homodimer interface peptide abutted by D-Ala at both termini] | did not inhibit | did not inhibit | did not inhibit | inhibit signaling through CD28 | do not induce a significant Th1 cytokine response | none of the peptides showed affinity for IgG | – | – | –
